Target: T1, TRPC4 (Homo sapiens, UniProt Q9UBN4)
T1 construct: expressed in transfected cells; host or cells: HEK293
T1 sequence (Q9UBN4 1-977): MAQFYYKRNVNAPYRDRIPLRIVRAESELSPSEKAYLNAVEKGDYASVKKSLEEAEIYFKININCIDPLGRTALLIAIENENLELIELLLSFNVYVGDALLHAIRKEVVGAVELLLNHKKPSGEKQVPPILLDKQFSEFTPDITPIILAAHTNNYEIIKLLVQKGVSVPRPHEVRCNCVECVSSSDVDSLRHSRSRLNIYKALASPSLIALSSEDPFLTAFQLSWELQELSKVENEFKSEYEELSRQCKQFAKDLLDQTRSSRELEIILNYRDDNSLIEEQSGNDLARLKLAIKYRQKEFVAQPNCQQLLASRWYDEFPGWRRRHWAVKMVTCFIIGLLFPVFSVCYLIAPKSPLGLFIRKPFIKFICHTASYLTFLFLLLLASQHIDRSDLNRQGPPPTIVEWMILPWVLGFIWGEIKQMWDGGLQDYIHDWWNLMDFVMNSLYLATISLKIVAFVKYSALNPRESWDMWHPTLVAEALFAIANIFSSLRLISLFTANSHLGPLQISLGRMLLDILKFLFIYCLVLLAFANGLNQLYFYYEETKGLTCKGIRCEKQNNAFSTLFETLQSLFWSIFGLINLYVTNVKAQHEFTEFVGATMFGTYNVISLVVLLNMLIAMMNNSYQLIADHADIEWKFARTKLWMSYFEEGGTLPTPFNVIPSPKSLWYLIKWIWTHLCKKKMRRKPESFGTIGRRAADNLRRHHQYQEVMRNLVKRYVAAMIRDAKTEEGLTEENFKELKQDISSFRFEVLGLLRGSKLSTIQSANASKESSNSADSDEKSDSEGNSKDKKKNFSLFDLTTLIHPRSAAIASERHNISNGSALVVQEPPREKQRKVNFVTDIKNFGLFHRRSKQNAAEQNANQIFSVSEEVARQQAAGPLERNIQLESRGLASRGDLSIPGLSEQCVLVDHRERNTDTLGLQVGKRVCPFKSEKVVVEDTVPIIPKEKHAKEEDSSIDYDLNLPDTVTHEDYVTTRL
Assay: HEK293 whole-cell patch clamp recording, TRPC4 inhibition assay
Format: cell-based
Settings: 30 μM, HEK cells expressing TRPC4, CCh 100 μM
Procedure: TRPC4, TRPC5, and TRPC6 inhibition assay: HEK293 whole-cell recordings Whole-cell patch clamp recording was performed 16 h after transfection. The bath solution contained (in mM): 140 NaCl, 5 KCl, 10 HEPES, 2 MgCl2, 2 CaCl2, 10 glucose with pH7.4 adjusted with NaOH. The intracellular solution contained (in mM): 140 KCl, 5 EGTA, 10 HEPES, 2 MgCl2 with pH7.4 adjusted with KOH. The patch pipettes were made using a two-step-protocol (P-97, Sutter Instrument). The pipette resistance was maintained between 4 to 8 MΩ. Once the whole-cell configuration was achieved, cells were clamped at a holding potential of −60 mV, and given a 50 ms ramp stimulation from −100 mV to +100 mV in every 5 s. All currents were filtered at 2 KHz (Axopatch 200B amplifier, Axon Instruments, Union City, Calif.) and digitized at 10 KHz for whole-cell recordings using Axon pCLAMP 10.4. Data were then analyzed using Clampfit 10.4 (Molecular Devices).
HEK293 cell culture and transfection: Transfection of HEK293 cells was carried out using Plus reagent (Invitrogen) and Lipofectamine (Invitrogen) according to standard protocols. For heterologous expression of TRP channels in HEK293 cells, 1 μg of TRPC5-GFP, TRPC6-GFP or TRPC4-GFP plasmids were used to transfect HEK293 cells in a 3.5 cm petri dish where cells were allowed to grow to 80% confluence. Electrophysiology was carried out after 16 h incubation.

SMILES: c1ccc(Cn2c(NCc3ccco3)nc3ccccc32)cc1 [AC1903]
- block of carbachol (CCh)-induced TRPC4 current: failed to block
